The test system of this assay is Gram-negative non-fermenting bacteria: B. cepacia, P. aeruginosa, Strenotrophomonas sp. As to the kind of experiment: Modified challenge test in fabric conditioner, Total Viable Count pour plate: Gram-negative non-fermenting bacteria. The format is cell-based. The note with it: overall statement on the challenge tests of Tables 3 and 4. The procedure:
Water was heated to ˜45° C., the Cetearyl alcohol was added followed by the minors. A premix of melted quaternary ammonium active was then added and mixed. The formulation was then cooled to ˜35° C. and any remaining minors added.
Itaconic acid, lactic acid and citric acid were purchased from Sigma-Aldrich. Samples of unpreserved fabric conditioner were dosed with itaconic acid, citric acid or lactic acid separately, according to Tables 3 and 4. Each dosed product was adjusted to pH 5 using 50% sodium hydroxide (Sigma-Aldrich). An unpreserved sample was kept as a control.
A modified challenge test method was performed on samples as defined in […]. The microbial compositions comprising the bacteria listed in Tables 2 and 3 were produced with an inoculum level of 5×10^7 CFU/G in sodium chloride.
The microbial compositions were added to each fabric conditioner formulation at a ratio of 1:10 (by weight) microbial composition to fabric conditioner formulation. […]
Both the inoculum level and the level of microorganism within each sample was quantified using a Total Viable Count (TVC) pour plate method after contact times as indicated in data tables. […] Visible colonies were counted with the aid of a Quebec Colony Counter and recorded for analysis against the challenge test criteria.

For `C=C(CC(=O)O)C(=O)O` [itaconic acid], the “Preservation performance compared with other systems” value is “out performed citric acid, lactic acid and unpreserved systems”.

These data come from patent US20220033734A1, “FABRIC CONDITIONER COMPOSITIONS” (Conopco, Inc., d/b/a UNILEVER, priority 2018, published 2022).
